Measurements from patent US20030157516A1, “G protein coupled receptor” (priority 2000, published 2003).
Several values for one entry are separate records, joined by “and”; a condition that tells them apart may be missing. Identical values can stand only once. Like-named read-outs stand apart in the source and are kept apart here.

Assays:
[1] = molecular target: T1, rat adenine binding GPCR (Rattus norvegicus, UniProt Q7TN49); experiment: FLIPR Ca2+ transient assay, agonism, HEK293/Gq chimera cells transiently transfected with rat adenine binding GPCR/pcDNA3; format: cell-based; design: The full length reading frame was inserted into the mammalian expression vector pcDNA3; expressed in transfected cells; host or cells: HEK293 cells stably transfected with pLEC/Gqi or pLEC/Gqo; conditions: for agonistic effects on Ca2+ transients: concentrations ranging from 30 μM to 30 pM; for calcium transients elicited: HEK293/Gaqo cells, 3.3 μM
T1 sequence (Q7TN49 1-304): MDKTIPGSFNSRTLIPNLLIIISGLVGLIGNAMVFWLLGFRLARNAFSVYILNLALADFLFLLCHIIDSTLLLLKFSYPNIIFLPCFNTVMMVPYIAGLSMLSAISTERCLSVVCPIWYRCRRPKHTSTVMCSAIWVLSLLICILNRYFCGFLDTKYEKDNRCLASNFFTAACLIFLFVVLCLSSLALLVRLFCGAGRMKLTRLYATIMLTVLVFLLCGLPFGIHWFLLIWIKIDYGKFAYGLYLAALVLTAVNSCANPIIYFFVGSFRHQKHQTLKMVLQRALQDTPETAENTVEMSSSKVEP
Text: This assay is based around an instrument called a FLuorescence Imaging Plate Reader ((FLIPR®), Molecular Devices Corporation). In its most common configuration, it excites and measures fluorescence emitted by fluorescein-based dyes. It uses an argon-ion laser to produce high power excitation at 488 nm of a fluorophore, a system of optics to rapidly scan the over the bottom of a 96-/384-well plate and a sensitive, cooled CCD camera to capture the emitted fluorescence. It also contains a 96-/384-well pipetting head allowing the instrument to deliver solutions of test agents into the wells of a 96-/384-well plate. The FLIPR assay is designed to measure fluorescence signals from populations of cells before, during and after addition of compounds, in real time, from all 96-/384-wells simultaneously. […] As described below, calcium transients in cells transfected with adenine binding GPCR were measured using the FLIPR assay in order to measure activation of the receptors by various substrates in order to determine the natural ligand of the receptor.
The full length reading frame was inserted into the mammalian expression vector pcDNA3 (Invitrogen, Carlsbad, Calif., U.S.A.) and the resulting expression construct was transiently transfected with the FuGENE 6 reagent (Roche Molecular Biochemicals, Mannheim, Germany) into HEK293 cells stably transfected (E. Bender, unpublished) with pLEC/Gqi or pLEC/Gqo (Molecular Devices, Sunnyvale, Calif., U.S.A.). The cells were loaded with Fluo-4 (Molecular Probes, Eugene, Oreg., U.S.A.) according to the recommendations of the supplier. […]
Using the FLIPR assay as above, calcium transients were measured in both sets of cells with the transients attributable to the novel GPCR measured as the difference between the two transients. Results are illustrated in FIG. 4. […]

[2] = molecular target: T2, adenine binding GPCR (Rattus norvegicus, UniProt Q7TN49); experiment: FLIPR Ca2+ transient assay, antagonism of 30 nM adenine challenge; format: cell-based; conditions: 15 minutes incubation with compound (30 μM to 30 pM), then challenge with 30 nM adenine
T2 construct: The full length reading frame was inserted into the mammalian expression vector pcDNA3; expressed in transfected cells; host or cells: HEK293 cells stably transfected with pLEC/Gqi or pLEC/Gqo
T2 sequence (Q7TN49 1-304): T1 sequence (Q7TN49 1-304)
Text: The full length reading frame was inserted into the mammalian expression vector pcDNA3 (Invitrogen, Carlsbad, Calif., U.S.A.) and the resulting expression construct was transiently transfected with the FuGENE 6 reagent (Roche Molecular Biochemicals, Mannheim, Germany) into HEK293 cells stably transfected (E. Bender, unpublished) with pLEC/Gqi or pLEC/Gqo (Molecular Devices, Sunnyvale, Calif., U.S.A.). The cells were loaded with Fluo-4 (Molecular Probes, Eugene, Oreg., U.S.A.) according to the recommendations of the supplier.
After a 15 minutes incubation at room temperature, the same cells were challenged with 30 nM adenine, to detect antagonistic properties of molecules added in the first round of superfusion.

[3] = tested on: wild type CHO cells; experiment: [3H]adenine competition binding on wild type CHO membranes; conditions: 15 nM [3H]adenine
Description: The membranes were prepared as total particulate fractions. […] The culturing medium was removed and the cells were washed twice with ice cold phosphate buffered saline (PBS without Ca^2+ and Mg^2+), scraped from the plates in 50 mM Tris-HCl buffer, pH 7.4, and collected by centrifugation (10 minutes at 16,000 RPM at 4° C.). The cell pellet was re-suspended in hypotonic 5 mM Tris-HCl buffer, pH 7.4, and homogenized with an Ultra Turrax homogenizer (Janker Kunkel, Germany). The homogenate was centrifuged at 18,000 RPM for 20 minutes at 4° C. The final pellet was re-suspended in 50 mM Tris-HCl buffer, pH 7.4 and stored in aliquots at −70° C. A protein determination was performed using the Bradford protein assay (Biorad, Germany) using bovine serum albumin (BSA) as standard.
(§1) Membranes were thawed on ice and diluted in 50 mM HEPES buffer, pH 7.4 supplemented with 10 mM MgCl2 and 1 mM EGTA. […] Both assays were carried out in a final volume of 500 μl, using 18 μg of membrane protein for the transfected CHO cells and 30 μg of membrane protein for the wild type CHO cells for the saturation binding. For competition binding experiments, 15 and 50 μg of membrane protein was used for the transfected and wild type cells, respectively. The reaction was terminated by rapid filtration through Whatman GF/B filters using a Brandel multi-channel cell harvester (96 wells). The filters were washed three times with 3 ml ice cold 50 mM HEPES buffer, pH 7.4, transferred to liquid scintillation vials and 3 ml of scintillation fluid (Ultima Gold MV, Packard, Netherlands) was added. Samples were counted in a β-scintillation counter after at least 6 hours to permit the glass fiber filters to become uniformly translucent.

[4] = molecular target: T3, adenine binding rat receptor (Rattus norvegicus, UniProt Q7TN49); experiment: [3H]adenine competition binding on CHO membranes transiently transfected; conditions: transfected cells, 15 nM [3H]adenine
T3 construct: expressed in transfected cells; host or cells: CHO cells, transient, lipofectamine PLUS
T3 sequence (Q7TN49 1-304): T1 sequence (Q7TN49 1-304)
Description: The membranes were prepared as total particulate fractions. The cell lines were cultured to […] on 145 mm petri dishes and treated with 5 mM sodium butyrate, 24 hours before collection. The culturing medium was removed and the cells were washed twice with ice cold phosphate buffered saline (PBS without Ca^2+ and Mg^2+), scraped from the plates in 50 mM Tris-HCl buffer, pH 7.4, and collected by centrifugation (10 minutes at 16,000 RPM at 4° C.). The cell pellet was re-suspended in hypotonic 5 mM Tris-HCl buffer, pH 7.4, and homogenized with an Ultra Turrax homogenizer (Janker Kunkel, Germany). The homogenate was centrifuged at 18,000 RPM for 20 minutes at 4° C. The final pellet was re-suspended in 50 mM Tris-HCl buffer, pH 7.4 and stored in aliquots at −70° C. A protein determination was performed using the Bradford protein assay (Biorad, Germany) using bovine serum albumin (BSA) as standard.
as §1, with “A) Methods—[3H]Adenine binding experiments were performed to characterize wild type cell lines before transfection as well as transiently and permanently transfected cell lines. Membranes” for “Membranes”

[5] = molecular target: T3, adenine binding rat receptor; experiment: [35S]GTPγS binding on CHO membranes transiently transfected; format: biochemical; conditions: transiently transfected cells; for % stim.: increase above basal; for EC50: read-out: pEC50 (converted)
Description: a) Methods—Determination of [^35S ]GTPγS binding to the G-proteins was carried out according to a modified procedure of Lazareno (Methods Mol. Biol., 83:107-116, 1997). These experiments were performed for a first functional evaluation of the receptor on the level of a membrane preparation.
The assay mixture contained 10 and 35 μg of membrane protein for the transfected and wild type CHO cells, respectively.
For testing agonistic activity, 175 μl of diluted membranes was pre-incubated in the buffer described above together with 25 μl of buffer and 25 μl of varying concentrations of the compound in a total volume of 225 μl. After a 20 minute pre-incubation period at 30° C., 25 μl of [^35S]GTPγS was added to a final concentration of 0.25 nM and the assay mixtures were further incubated for 20 minutes at 30° C. Bound and free [^35S]GTPγS were separated by rapid filtration over an UniFilter™-96, GF/B™ under reduced pressure using Filtermate 196 filtration (Packard Company (Netherlands). The amount of bound radioactivity on the filter unit was determined after drying of the filters and scintillant addition (Microscint-O; Packard Company) by liquid scintillation counting.
Basal [^35S]GTPγS binding was measured in absence of compounds. Stimulation by agonist was calculated as the percentage increase above basal levels. The sigmoid agonist concentration-response curves were analyzed by non-linear regression using the GraphPad Prism program. The different concentration points were run in duplicates and the reported data were retrieved from independent experiments.

| agonistic effects on Ca2+ transients [1] | antagonistic effect [2] | Molecule | pIC50 ([3]; mean of n experiments) | pIC50 ([3]; single experiments) | also measured |
| --- | --- | --- | --- | --- | --- |
| No further agonistic effects | did not elicit antagonistic effects | O=c1ccn([C@@H]2O[C@H](COP(=O)(O)OP(=O)(O)OP(=O)(O)O)[C@@H](O)[C@H]2O)c(=O)[nH]1 [UTP] | – | – | – |
| No further agonistic effects | did not elicit antagonistic effects | Cc1ccc(C(=O)Nc2ccc(S(=O)(=O)O)c3cc(S(=O)(=O)O)cc(S(=O)(=O)O)c23)cc1NC(=O)c1cccc(NC(=O)Nc2cccc(C(=O)Nc3cc(C(=O)Nc4ccc(S(=O)(=O)O)c5cc(S(=O)(=O)O)cc(S(=O)(=O)O)c45)ccc3C)c2)c1 [suramin] | – | – | – |
| – | – | COc1cccc2c1C(=O)c1c(O)c3c(c(O)c1C2=O)C[C@@](O)(C(=O)CO)C[C@@H]3O[C@H]1C[C@H](N)[C@H](O)[C@H](C)O1 [Adrianamycin] | <4 | <4 | Ki ([4]; mean of n experiments): 27.9 µM; pIC50 ([4]; mean of n experiments): 4.35; Ki ([4]; single experiments): 27.8 µM; pIC50 ([4]; single experiments): 4.35 |
| – | – | COc1cccc2c1C(=O)c1c(O)c3c(c(O)c1C2=O)C[C@@](O)(C(C)=O)C[C@@H]3O[C@H]1C[C@H](N)[C@H](O)[C@H](C)O1 [Daunomycin] | <4 | <4 | IC50 ([4]; mean of n experiments): 50.1 µM; Ki ([4]; mean of n experiments): 31.3 µM; IC50 ([4]; single experiments): 50.1 µM; Ki ([4]; single experiments): 31 µM |
| – | – | c1ccc(CNc2ncnc3nc[nH]c23)cc1 [6-Benzylaminopurine] | <4 | <4 | IC50 ([4]; mean of n experiments): 93.3 µM; Ki ([4]; mean of n experiments): 58.3 µM; IC50 ([4]; single experiments): 87.1 µM; Ki ([4]; single experiments): 61.4 µM and 54.1 µM; stimulation normalized to maximum adenine response ([5]; adenine stimulation of same experiment = 100%): (11% ref); % stim. ([5]; mean of n experiments): 12%; % stim. ([5]; single experiments): 12%; EC50 ([5]; mean of n experiments): > 100 µM; EC50 ([5]; single experiments): > 100 µM |
| No further agonistic effects | did not elicit antagonistic effects | Nc1ncnc2c1ncn2[C@@H]1O[C@H](COP(=O)(O)OP(=O)(O)O)[C@@H](O)[C@H]1O [ADP] | <4 | <4 | pIC50 ([4]; mean of n experiments): <4; pIC50 ([4]; single experiments): <4 |
| No further agonistic effects | did not elicit antagonistic effects | O=c1ccn([C@@H]2O[C@H](CO)[C@@H](O)[C@H]2O)c(=O)[nH]1 [Uridine, uridine] | <4 | <4 | IC50 ([4]; mean of n experiments): > 100 µM; IC50 ([4]; single experiments): > 100 µM; calcium transients elicited [1]: could not be elicited |
| No further agonistic effects | did not elicit antagonistic effects | O=c1ccn([C@@H]2O[C@H](COP(=O)(O)OP(=O)(O)O)[C@@H](O)[C@H]2O)c(=O)[nH]1 [UDP] | – | – | calcium transients elicited [1]: could not be elicited |
| No further agonistic effects | did not elicit antagonistic effects | reactive blue | – | – | – |
| No further agonistic effects | did not elicit antagonistic effects | O=c1[nH]c(=O)c2[nH]cnc2[nH]1 [xanthine] | – | – | calcium transients elicited [1]: could not be elicited |

| Molecule | agonistic effects on Ca2+ transients [1] | antagonistic effect [2] | pIC50 ([3]; mean of n experiments) | pIC50 ([3]; single experiments) | also measured |
| --- | --- | --- | --- | --- | --- |
| Cn1c(=O)c2[nH]cnc2n(C)c1=O [theophylline] | No further agonistic effects | did not elicit antagonistic effects | – | – | – |
